Source: article PMC7736581, “Activation of the IRE1 RNase through remodeling of the kinase front pocket by ATP-competitive ligands” (Nature Communications, 2020)

Columns and labels:
Assay in all cases: biochemical
Design in all cases: Invitrogen kinase panel: Z'Lyte activity (ATP at Km) or LanthaScreen competitive ATP-site binding, percent inhibition
[1] = target: T1, ALK2 (Homo sapiens, UniProt Q04771)
T1 construct: gene ACVR1

[2] = target: Axl (Homo sapiens, UniProt P30530)
[3] = target: Bmx (Homo sapiens, UniProt P51813)
[4] = target: T2, CK1_gamma2 (Homo sapiens, UniProt P78368)
T2 construct: gene CSNK1G2

[5] = target: T3, CamKII_alpha (Homo sapiens, UniProt Q9UQM7)
T3 construct: gene CAMK2A
T3 sequence (Q9UQM7 whole entry): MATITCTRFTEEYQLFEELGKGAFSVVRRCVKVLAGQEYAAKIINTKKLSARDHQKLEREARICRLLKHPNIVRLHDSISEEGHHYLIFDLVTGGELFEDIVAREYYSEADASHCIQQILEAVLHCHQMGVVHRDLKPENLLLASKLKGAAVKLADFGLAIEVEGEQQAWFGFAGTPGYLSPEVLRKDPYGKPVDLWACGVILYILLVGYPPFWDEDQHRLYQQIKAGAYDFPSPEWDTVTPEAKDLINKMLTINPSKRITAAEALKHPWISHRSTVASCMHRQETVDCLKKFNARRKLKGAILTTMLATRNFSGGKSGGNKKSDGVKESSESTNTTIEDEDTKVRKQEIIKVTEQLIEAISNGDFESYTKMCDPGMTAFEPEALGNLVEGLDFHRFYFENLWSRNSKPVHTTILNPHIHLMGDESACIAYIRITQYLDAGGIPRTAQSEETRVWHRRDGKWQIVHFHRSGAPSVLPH

[6] = target: DAPK1 (Homo sapiens, UniProt P53355)
[7] = target: GRK3 (Homo sapiens, UniProt P35626)
[8] = target: HIPK4 (Homo sapiens, UniProt Q8NE63)
[9] = target: IGF1R (Homo sapiens, UniProt P08069)
[10] = target: T4, MLK2 (Homo sapiens, UniProt Q02779)
T4 construct: gene MAP3K10
T4 sequence (Q02779 whole entry): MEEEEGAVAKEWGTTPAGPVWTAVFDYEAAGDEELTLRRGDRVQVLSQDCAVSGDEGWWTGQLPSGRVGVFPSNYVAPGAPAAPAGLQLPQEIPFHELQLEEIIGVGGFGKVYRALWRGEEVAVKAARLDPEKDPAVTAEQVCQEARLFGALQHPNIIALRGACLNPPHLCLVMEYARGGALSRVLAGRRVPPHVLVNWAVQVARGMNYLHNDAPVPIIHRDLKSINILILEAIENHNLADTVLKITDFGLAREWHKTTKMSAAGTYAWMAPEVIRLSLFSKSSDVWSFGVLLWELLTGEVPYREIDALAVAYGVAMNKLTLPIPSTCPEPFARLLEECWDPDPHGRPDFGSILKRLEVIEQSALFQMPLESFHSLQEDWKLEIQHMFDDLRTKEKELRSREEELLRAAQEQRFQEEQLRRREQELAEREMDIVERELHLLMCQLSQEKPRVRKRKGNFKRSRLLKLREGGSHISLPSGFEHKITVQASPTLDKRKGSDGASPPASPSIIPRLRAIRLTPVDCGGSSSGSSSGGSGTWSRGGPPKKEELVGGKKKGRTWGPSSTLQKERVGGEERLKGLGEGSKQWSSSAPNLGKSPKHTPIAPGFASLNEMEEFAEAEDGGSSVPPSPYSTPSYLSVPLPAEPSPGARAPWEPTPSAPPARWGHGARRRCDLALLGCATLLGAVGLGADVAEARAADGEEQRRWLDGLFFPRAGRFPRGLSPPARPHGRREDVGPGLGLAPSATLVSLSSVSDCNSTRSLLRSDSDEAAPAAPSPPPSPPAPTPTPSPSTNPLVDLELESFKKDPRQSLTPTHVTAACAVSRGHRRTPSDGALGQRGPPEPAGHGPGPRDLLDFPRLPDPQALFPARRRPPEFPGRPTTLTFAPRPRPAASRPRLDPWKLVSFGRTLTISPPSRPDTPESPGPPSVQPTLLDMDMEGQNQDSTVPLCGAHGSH

[11] = target: T5, MSSK1 (Homo sapiens, UniProt Q9UPE1)
T5 construct: gene SRPK3
T5 sequence (Q9UPE1 whole entry): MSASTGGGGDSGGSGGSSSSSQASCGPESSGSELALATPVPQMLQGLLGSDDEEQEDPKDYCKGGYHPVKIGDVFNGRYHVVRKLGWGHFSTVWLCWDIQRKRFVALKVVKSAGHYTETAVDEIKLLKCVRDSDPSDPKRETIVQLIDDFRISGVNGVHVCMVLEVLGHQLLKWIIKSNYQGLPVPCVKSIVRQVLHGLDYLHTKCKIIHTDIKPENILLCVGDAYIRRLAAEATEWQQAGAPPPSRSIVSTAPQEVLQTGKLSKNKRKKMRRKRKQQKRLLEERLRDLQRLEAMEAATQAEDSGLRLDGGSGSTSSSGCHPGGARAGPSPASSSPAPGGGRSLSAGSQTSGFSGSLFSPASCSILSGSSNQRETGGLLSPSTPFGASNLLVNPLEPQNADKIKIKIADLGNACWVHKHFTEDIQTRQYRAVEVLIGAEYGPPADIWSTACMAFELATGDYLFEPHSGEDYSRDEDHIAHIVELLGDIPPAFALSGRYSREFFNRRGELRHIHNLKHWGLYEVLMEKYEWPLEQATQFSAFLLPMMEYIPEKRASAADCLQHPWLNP

[12] = target: T6, MST4 (Homo sapiens, UniProt Q9P289)
T6 construct: gene STK26
T6 sequence (Q9P289 whole entry): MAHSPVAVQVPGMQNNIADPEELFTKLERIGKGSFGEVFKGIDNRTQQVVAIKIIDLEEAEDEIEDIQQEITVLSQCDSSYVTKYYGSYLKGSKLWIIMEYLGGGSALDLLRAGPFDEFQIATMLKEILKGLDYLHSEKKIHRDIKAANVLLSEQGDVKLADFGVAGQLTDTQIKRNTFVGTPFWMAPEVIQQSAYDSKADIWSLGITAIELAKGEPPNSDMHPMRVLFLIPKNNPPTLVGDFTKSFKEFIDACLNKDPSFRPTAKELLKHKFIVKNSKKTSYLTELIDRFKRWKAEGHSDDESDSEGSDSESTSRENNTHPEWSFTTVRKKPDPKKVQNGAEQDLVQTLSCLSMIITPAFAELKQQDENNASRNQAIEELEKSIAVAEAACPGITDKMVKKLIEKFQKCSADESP

[13] = target: T7, MYLK(smMLCK) (Homo sapiens, UniProt Q15746)
T7 construct: smMLCK

[14] = target: NLK (Homo sapiens, UniProt Q9UBE8)
NLK, sequence (Q9UBE8 whole entry): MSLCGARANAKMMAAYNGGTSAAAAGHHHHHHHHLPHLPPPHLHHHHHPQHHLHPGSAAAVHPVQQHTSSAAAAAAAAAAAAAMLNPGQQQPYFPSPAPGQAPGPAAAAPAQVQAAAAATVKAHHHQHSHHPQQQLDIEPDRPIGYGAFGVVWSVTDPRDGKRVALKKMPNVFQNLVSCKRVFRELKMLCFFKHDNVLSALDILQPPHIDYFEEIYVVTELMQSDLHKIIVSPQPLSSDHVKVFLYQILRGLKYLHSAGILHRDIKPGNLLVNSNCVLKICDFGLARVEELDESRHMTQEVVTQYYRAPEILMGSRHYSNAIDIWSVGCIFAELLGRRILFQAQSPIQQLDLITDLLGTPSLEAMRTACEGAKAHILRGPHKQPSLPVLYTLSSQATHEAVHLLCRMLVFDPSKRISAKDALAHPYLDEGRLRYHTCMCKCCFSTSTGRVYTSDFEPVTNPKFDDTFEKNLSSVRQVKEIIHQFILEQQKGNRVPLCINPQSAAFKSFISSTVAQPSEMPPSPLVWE

[15] = target: T8, PI3K-A (Homo sapiens, UniProt P42336)
T8 construct: gene PIK3CA
T8 sequence (P42336 whole entry): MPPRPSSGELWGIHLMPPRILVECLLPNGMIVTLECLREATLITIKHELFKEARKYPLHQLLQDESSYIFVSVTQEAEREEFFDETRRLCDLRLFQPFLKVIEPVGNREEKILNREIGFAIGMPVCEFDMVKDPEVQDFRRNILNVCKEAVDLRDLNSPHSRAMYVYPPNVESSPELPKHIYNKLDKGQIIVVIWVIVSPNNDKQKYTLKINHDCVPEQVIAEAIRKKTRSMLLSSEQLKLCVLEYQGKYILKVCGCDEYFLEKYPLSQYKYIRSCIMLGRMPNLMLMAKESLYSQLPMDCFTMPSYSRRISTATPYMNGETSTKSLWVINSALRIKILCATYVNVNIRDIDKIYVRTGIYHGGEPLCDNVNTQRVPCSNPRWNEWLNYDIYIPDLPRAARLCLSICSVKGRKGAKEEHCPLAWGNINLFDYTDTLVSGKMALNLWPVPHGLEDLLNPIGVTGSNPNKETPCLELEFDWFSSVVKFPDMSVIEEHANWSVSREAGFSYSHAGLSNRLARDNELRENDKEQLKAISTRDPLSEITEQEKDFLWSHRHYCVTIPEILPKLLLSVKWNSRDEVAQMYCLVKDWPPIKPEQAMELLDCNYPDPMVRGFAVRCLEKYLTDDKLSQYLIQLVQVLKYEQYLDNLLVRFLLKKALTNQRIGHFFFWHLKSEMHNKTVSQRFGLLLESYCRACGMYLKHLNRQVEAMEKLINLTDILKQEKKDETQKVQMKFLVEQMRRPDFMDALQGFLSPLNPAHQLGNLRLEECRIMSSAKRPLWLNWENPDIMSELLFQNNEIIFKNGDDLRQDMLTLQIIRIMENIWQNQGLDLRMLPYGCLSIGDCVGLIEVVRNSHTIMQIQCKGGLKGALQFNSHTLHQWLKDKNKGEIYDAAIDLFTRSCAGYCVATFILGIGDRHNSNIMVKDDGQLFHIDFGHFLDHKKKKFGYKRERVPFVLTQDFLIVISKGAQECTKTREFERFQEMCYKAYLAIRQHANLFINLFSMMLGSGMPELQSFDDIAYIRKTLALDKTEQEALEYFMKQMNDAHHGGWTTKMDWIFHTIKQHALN
T8 sequence (P27986 whole entry partner): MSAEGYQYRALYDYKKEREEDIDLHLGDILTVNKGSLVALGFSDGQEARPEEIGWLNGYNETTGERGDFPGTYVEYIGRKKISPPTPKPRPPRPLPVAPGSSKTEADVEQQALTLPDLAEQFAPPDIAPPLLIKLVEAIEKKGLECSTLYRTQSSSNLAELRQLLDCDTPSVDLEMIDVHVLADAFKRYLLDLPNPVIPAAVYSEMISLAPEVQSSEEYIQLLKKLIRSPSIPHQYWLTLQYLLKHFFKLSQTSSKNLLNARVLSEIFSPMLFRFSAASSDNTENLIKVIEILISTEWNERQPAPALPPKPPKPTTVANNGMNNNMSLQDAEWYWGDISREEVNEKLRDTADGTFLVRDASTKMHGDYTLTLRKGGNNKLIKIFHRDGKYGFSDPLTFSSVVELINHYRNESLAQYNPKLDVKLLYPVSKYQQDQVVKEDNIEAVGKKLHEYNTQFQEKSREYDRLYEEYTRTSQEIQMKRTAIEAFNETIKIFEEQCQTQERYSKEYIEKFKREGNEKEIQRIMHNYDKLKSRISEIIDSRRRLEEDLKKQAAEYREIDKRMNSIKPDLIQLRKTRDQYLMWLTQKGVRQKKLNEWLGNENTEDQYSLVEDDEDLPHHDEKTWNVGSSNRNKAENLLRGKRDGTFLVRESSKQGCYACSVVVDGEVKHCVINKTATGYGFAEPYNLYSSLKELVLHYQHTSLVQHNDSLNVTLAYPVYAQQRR

[16] = target: T9, PRAK (Homo sapiens, UniProt Q8IW41)
T9 construct: gene MAPKAPK5

[17] = target: RIPK2 (Homo sapiens, UniProt O43353)
[18] = target: SGK1 (Homo sapiens, UniProt O00141)
[19] = target: SIK2 (Homo sapiens, UniProt Q9H0K1)
[20] = target: TNK2 (Homo sapiens, UniProt Q07912)
[21] = target: T10, ZAP-70 (Homo sapiens, UniProt P43403)
T10 construct: gene ZAP70

[22] = target: T11, eEF-2K (Homo sapiens, UniProt O00418)
T11 construct: gene EEF2K

[23] = target: mTOR (Homo sapiens, UniProt P42345)
[24] = target: T12, p38_beta (Homo sapiens, UniProt Q15759)
T12 construct: gene MAPK11

Row | Compound | inhibition at 1 µM [1] [%] | inhibition at 1 µM [2] [%] | inhibition at 1 µM [3] [%] | inhibition at 1 µM [4] [%] | inhibition at 1 µM [5] [%] | inhibition at 1 µM [6] [%] | inhibition at 1 µM [7] [%] | inhibition at 1 µM [8] [%] | inhibition at 1 µM [9] [%] | inhibition at 1 µM [10] [%] | inhibition at 1 µM [11] [%] | inhibition at 1 µM [12] [%] | inhibition at 1 µM [13] [%] | inhibition at 1 µM [14] [%] | inhibition at 1 µM [15] [%] | inhibition at 1 µM [16] [%] | inhibition at 1 µM [17] [%] | inhibition at 1 µM [18] [%] | inhibition at 1 µM [19] [%] | inhibition at 1 µM [20] [%] | further results
1 | CCOC(=O)Nc1cccc2c(Oc3ncccc3-c3ccnc(N[C@H]4CCCNC4)n3)c(C)ccc12 [G-1749] | 1 | -1.5 | -4 | -4.5 | -17.5 | -4 | -1 | 3.8 | 6.5 | 0.5 | -1.5 | -12.5 | 1.5 | 13 | 10 | 0.5 | 13.5 | 5.5 | -16.5 | 1 | inhibition at 1 µM [21]: 3%; inhibition at 1 µM [22]: 5%; inhibition at 1 µM [23]: 5%; inhibition at 1 µM [24]: 100%
2 | CC#CC(=O)Nc1cccc2c(Oc3ncccc3-c3ccnc(N[C@H]4CCCNC4)n3)c(C)ccc12 [G-7658] | 0.5 | -1 | -4.5 | -4.5 | -16 | -4 | -1.5 | 8 | 5.5 | 4 | 7 | -3.5 | 6 | 19 | -18.5 | -1 | 27.5 | 3.5 | 6 | 2 | inhibition at 1 µM [21]: 4%; inhibition at 1 µM [22]: 5%; inhibition at 1 µM [23]: 7%; inhibition at 1 µM [24]: 63.5%
